From patent US7442802B2, “Cyclooxygenase-2 selective inhibitors, compositions and methods of use” (NitroMed, Inc., priority 2002, dated 2008) come the findings set out here.

Read-outs that look alike come from different tables or passages of the source.

The target in assay [1] is T1, COX-1 (Homo sapiens, UniProt P23219).
T1 construct: endogenous in cells; host or cells: heparinised human whole blood from donors, stimulated with the calcium ionophore A23187
Kind of assay: Human COX-1 enzyme activity in human whole blood (A23187-stimulated, thromboxane B2 EIA). The class given is cell-based. Conditions: for inhibition at 100 µM: read-out: COX-1 Inhibition (% at 100 μM). How it is done:
(§1) The blood was transported to the laboratory on ice packs and used within 1.5 hours of collection. Upon receipt in the laboratory, the blood was allowed to come to room temperature for 15 minutes prior to distribution in 1 mL aliquots per well of 24 well tissue culture plates. […] Test compounds were dissolved in DMSO, at 1000 fold the final desired concentration, and further diluted, as indicated, in DMSO. One μL of each dilution of the test compound was added per well, in duplicate wells; wells not receiving test compound (e.g., basal, background or control wells) received 1 μL DMSO. […] Louis, Mo., Catalogue No. […] Louis, Mo., Catalogue No. […] (Again, basal, background or control wells not stimulated with A23187 received 1 μL of DMSO.) At 5 hours after the addition of the test compound, all incubations were terminated by placement on ice and the addition of 2 mM EGTA (100 μL of 20 mM EGTA, tetrasodium, in PBS (phosphate buffered saline) without Ca^++ and Mg^++, pH 7.2)). […] One hundred μL of plasma was removed from each blood sample and added to 1 mL of methanol in new 15 mL polypropylene centrifuge tubes, vortexed, and stored overnight at -20° C. […] The samples were assayed for thromboxane B2 using EIA kits supplied by Cayman Chemical Co. […] The % inhibition for COX-1 and COX-2 enzyme activity in human whole blood by the test compounds, at the indicated concentrations, are given in Table 1.

Assay [2] addresses T2, COX-2 (Homo sapiens, UniProt P35354).
T2 construct: To induce COX-2, lipopolysaccharide (LPS) from E. coli; endogenous in cells; host or cells: heparinised human whole blood from donors, with COX-2 induced by E. coli LPS
T2 sequence (P35354 18-604): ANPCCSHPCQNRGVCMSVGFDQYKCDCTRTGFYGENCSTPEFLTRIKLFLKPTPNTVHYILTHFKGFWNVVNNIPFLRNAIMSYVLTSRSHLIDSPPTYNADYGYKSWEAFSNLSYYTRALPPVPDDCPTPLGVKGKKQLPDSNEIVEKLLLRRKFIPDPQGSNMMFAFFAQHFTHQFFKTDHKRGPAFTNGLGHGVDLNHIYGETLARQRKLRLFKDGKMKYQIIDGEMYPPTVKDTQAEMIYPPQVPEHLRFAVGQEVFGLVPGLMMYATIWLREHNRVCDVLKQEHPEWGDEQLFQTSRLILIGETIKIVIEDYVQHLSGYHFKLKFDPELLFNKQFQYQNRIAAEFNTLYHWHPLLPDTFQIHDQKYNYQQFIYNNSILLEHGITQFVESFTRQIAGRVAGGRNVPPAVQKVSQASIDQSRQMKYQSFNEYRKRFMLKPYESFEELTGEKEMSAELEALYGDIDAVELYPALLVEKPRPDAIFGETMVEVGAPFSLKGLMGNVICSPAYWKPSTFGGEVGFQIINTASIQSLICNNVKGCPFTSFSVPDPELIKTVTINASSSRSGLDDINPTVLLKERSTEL
Kind of assay: Human COX-2 enzyme activity in human whole blood (LPS-induced, thromboxane B2 EIA). The class given is cell-based. The note with it: for inhibition at 1 µM: read-out: COX-2 Inhibition (% at 1 μM); for inhibition at 10 µM: read-out: COX-2 Inhibition (% at 10 μM). How it is done: as §1

The mark [3] stands for this setting: 100 μM, human whole blood, A23187 stimulation.
The mark [4] stands for this setting: 1 μM, human whole blood, LPS induction.
Where [5] appears, read: 10 μM, human whole blood, LPS induction.

T1 sequence (P23219 24-599): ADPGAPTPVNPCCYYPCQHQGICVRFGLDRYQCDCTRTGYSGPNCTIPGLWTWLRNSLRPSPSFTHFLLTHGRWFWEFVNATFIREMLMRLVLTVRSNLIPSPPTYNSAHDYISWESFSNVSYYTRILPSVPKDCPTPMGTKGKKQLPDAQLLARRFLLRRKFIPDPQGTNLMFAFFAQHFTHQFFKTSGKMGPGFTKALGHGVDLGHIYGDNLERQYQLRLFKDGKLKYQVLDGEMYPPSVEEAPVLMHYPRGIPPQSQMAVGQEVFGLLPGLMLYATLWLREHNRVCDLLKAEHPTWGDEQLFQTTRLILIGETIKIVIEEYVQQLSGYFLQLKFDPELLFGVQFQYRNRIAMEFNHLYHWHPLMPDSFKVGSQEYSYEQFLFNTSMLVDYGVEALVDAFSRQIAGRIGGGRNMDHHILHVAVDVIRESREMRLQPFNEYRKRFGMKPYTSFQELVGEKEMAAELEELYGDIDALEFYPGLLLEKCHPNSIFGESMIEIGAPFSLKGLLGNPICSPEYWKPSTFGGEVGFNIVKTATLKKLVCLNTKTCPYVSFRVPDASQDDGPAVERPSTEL

Consider “4-(5-(4-Chlorophenyl)-3-((3-hydroxypropoxy)methyl)pyrazolyl)-benzenesulfonamide [Example 36b]”, for which the “COX-1 Inhibition (% at 100 μM)” value in assay [1] (setting [3]) was found to be 30%. Besides, the “COX-2 Inhibition (% at 1 μM)” value in assay [2] (setting [4]) is given as 30%. The “COX-2 Inhibition (% at 10 μM)” value in assay [2] (setting [5]) was 55%.

In the case of “4-(5-(4-Chlorophenyl)-3-((3-hydroxypropoxy)methyl)pyrazolyl)benzenesulfonamide [Example 28a]”, in assay [1] (setting [3]), the “COX-1 Inhibition (% at 100 μM)” value was 30%. Moreover, in assay [2] (setting [4]), the “COX-2 Inhibition (% at 1 μM)” value was found to be 30%. Moreover, in assay [2] (setting [5]), the “COX-2 Inhibition (% at 10 μM)” value came to 55%.

Regarding “4-(5-(Chlorophenyl)-3-((3-(nitrooxy)propoxy)methyl)benzene-sulfonamide [Example 36c]”, in assay [1] (setting [3]), the “COX-1 Inhibition (% at 100 μM)” value came to 55%. Also, the “COX-2 Inhibition (% at 1 μM)” value in assay [2] (setting [4]) came out at 40%. For the same molecule, the “COX-2 Inhibition (% at 10 μM)” value in assay [2] (setting [5]) stood at 80%.

For the molecule `CS(=O)(=O)c1ccc(-c2cc(CO)nn2C2CCCCCCC2)cc1` [Example 1g], the “COX-1 Inhibition (% at 100 μM)” value in assay [1] (setting [3]) worked out at 35%. Also, the “COX-2 Inhibition (% at 1 μM)” value in assay [2] (setting [4]) is 35%. In assay [2] (setting [5]), the “COX-2 Inhibition (% at 10 μM)” value is 75%.

With `CS(=O)(=O)c1ccc(-c2cc(CO[N+](=O)[O-])nn2C2CCCCCCC2)cc1` [Example 1h], in assay [1] (setting [3]), the “COX-1 Inhibition (% at 100 μM)” value is reported as 60%. Besides, in assay [2] (setting [4]), the “COX-2 Inhibition (% at 1 μM)” value was 50%. Moreover, the “COX-2 Inhibition (% at 10 μM)” value in assay [2] (setting [5]) is recorded as 90%.

The inhibition is the share of the control response that was lost under treatment. `CS(=O)(=O)c1ccc(-c2cc(CO)nn2C2CCCCCC2)cc1` [Example 2c, 1-(1-Cycloheptyl-3-(hydroxymethyl)pyrazol-5-yl)-4-(methylsulfonyl)benzene]: the inhibition at 100 µM in assay [1] (setting [3]) came out at 40%. For the same molecule, the inhibition at 1 µM in assay [2] (setting [4]) stood at 10%. Also, the inhibition at 10 µM in assay [2] (setting [5]) amounted to 25%.

For the molecule `CS(=O)(=O)c1ccc(-c2cc(C(=O)CCCO)nn2C2CCCCC2)cc1` [Example 3e, 1-(1-Cyclohexyl-5-(4-(methylsulfonyl)phenyl)pyrazol-3-yl)-4-hydroxybutan-1-one], the inhibition at 100 µM in assay [1] (setting [3]) was found to be 0%. In addition, the inhibition at 1 µM in assay [2] (setting [4]) came to 60%. The inhibition at 10 µM in assay [2] (setting [5]) came out at 90%.

In the case of `CS(=O)(=O)c1ccc(-c2cc(/C=C\CCO)nn2C2CCCCC2)cc1` [Example 4e, 1-(3-((1Z)-4-(Hydroxy)but-1-enyl)-1-cyclohexylpyrazol-5-yl-4-methylsulfonyl)benzene], the “COX-1 Inhibition (% at 100 μM)” value in assay [1] (setting [3]) is on record as 45%. In addition, in assay [2] (setting [4]), the “COX-2 Inhibition (% at 1 μM)” value is listed as 30%. Besides, in assay [2] (setting [5]), the “COX-2 Inhibition (% at 10 μM)” value is on record as 70%.

`CS(=O)(=O)c1ccc(-c2cc(COCCCO)nn2-c2ccccc2)cc1` [Example 5d, 4-(3-((3-Hydroxypropoxy)methyl)-1-phenylpyrazol-5-yl)-1-(methylsulfonyl)benzene]: in assay [1] (setting [3]), the inhibition at 100 µM was 25%. In assay [2] (setting [4]), the inhibition at 1 µM worked out at 20%. In assay [2] (setting [5]), the inhibition at 10 µM was found to be 80%.

Regarding `CS(=O)(=O)c1ccc(-c2cc(C(F)(F)OCCCO)nn2-c2ccccc2)cc1` [Example 6e, 1-(3-(Difluoro(3-hydroxypropoxy)methyl)-1-phenylpyrazol-5-yl)-4-(methylsulfonyl)benzene], in assay [1] (setting [3]), the inhibition at 100 µM stood at 40%. The inhibition at 1 µM in assay [2] (setting [4]) stood at 50%. The inhibition at 10 µM in assay [2] (setting [5]) was 85%.

Regarding `CS(=O)(=O)c1ccc(-c2cc(C(F)(F)OCCCO[N+](=O)[O-])nn2-c2ccccc2)cc1` [Example 6f, 1-(3-(Difluoro(3-(nitrooxy)propoxy)methyl)-1-phenylpyrazol-5-yl)-4-(methylsulfonyl)benzene], the inhibition at 100 µM in assay [1] (setting [3]) was 80%. Also, in assay [2] (setting [4]), the inhibition at 1 µM amounted to 50%. Further, the inhibition at 10 µM in assay [2] (setting [5]) was 95%.

`CS(=O)(=O)c1ccc(-c2cc(COCCCO)nn2-c2ccc(Cl)cc2)cc1` [Example 7d, 1-(1-(4-Chlorophenyl)-3-((3-hydroxypropoxy)methyl)pyrazol-5-yl)-4-(methylsulfonyl)benzene]: the inhibition at 100 µM in assay [1] (setting [3]) worked out at 80%. Besides, the inhibition at 1 µM in assay [2] (setting [4]) is 25%. Also, the inhibition at 10 µM in assay [2] (setting [5]) was found to be 95%.

As for `CS(=O)(=O)c1ccc(-c2cc(COCCCO[N+](=O)[O-])nn2-c2ccc(Cl)cc2)cc1` [Example 7e, 1-(1-(4-Chlorophenyl)-3-((3-(nitrooxy)propoxy)methyl)pyrazol-5-yl)-4-(methylsulfonyl)benzene], the inhibition at 100 µM in assay [1] (setting [3]) stood at 90%. Further, the inhibition at 1 µM in assay [2] (setting [4]) was 65%. Also, the inhibition at 10 µM in assay [2] (setting [5]) came out at 100%.

On to `Cc1ccc(-n2nc(COCCCO)cc2-c2ccc(S(C)(=O)=O)cc2)cc1` [Example 8d, 1-(3-((3-Hydroxypropoxy)methyl)-1-(4-methylphenyl)pyrazol-5-yl)-4-(methylsulfonyl)benzene], for which the inhibition at 100 µM in assay [1] (setting [3]) was 70%. Further, in assay [2] (setting [4]), the inhibition at 1 µM is 20%. In addition, the inhibition at 10 µM in assay [2] (setting [5]) was 90%.

For the molecule `Cc1ccc(-n2nc(COCCCO[N+](=O)[O-])cc2-c2ccc(S(C)(=O)=O)cc2)cc1` [Example 8e, 1-(1-(4-methylphenyl)-3-((3-(nitrooxy)propoxy)methyl)pyrazol-5-yl)-4-(methylsulfonyl)benzene], the inhibition at 100 µM in assay [1] (setting [3]) was determined as 90%. Also, the inhibition at 1 µM in assay [2] (setting [4]) stood at 50%. In addition, the inhibition at 10 µM in assay [2] (setting [5]) was determined as 95%.

With `CS(=O)(=O)c1ccc(-c2cc(COCCCO)nn2-c2ccc(C(F)(F)F)cc2)cc1` [Example 9d, 1-(3-((3-Hydroxypropoxy)methyl)-1-(4-(trifluoromethyl)phenyl)pyrazol-5-yl)-4-(methylsulfonyl)benzene], the inhibition at 100 µM in assay [1] (setting [3]) amounted to 40%. The inhibition at 1 µM in assay [2] (setting [4]) is 30%. The inhibition at 10 µM in assay [2] (setting [5]) stood at 85%.

Take `CS(=O)(=O)c1ccc(-c2cc(COCCCO[N+](=O)[O-])nn2-c2ccc(C(F)(F)F)cc2)cc1` [Example 9e, 4-(Methylsulfonyl)-1-(3-((3-(nitrooxy)propoxy)methyl)-1-(4-(trifluoromethyl)phenyl)pyrazol-5-yl)benzene]: the inhibition at 100 µM in assay [1] (setting [3]) was found to be 45%. The inhibition at 1 µM in assay [2] (setting [4]) worked out at 60%. For the same molecule, the inhibition at 10 µM in assay [2] (setting [5]) is 100%.

For the molecule `COc1ccc(-n2nc(COCCCO)cc2-c2ccc(S(C)(=O)=O)cc2)cc1` [Example 10d, 1-(3-((3-Hydroxypropoxy)methyl)-1-(4-methoxyphenyl)pyrazol-5-yl)-4-(methylsulfonyl)benzene], the inhibition at 100 µM in assay [1] (setting [3]) stood at 100%. Besides, the inhibition at 1 µM in assay [2] (setting [4]) came to 25%. The inhibition at 10 µM in assay [2] (setting [5]) worked out at 100%.

Regarding `COc1ccc(-n2nc(COCCCO[N+](=O)[O-])cc2-c2ccc(S(C)(=O)=O)cc2)cc1[N+](=O)[O-]` [Example 10e, 1-(1-(4-Methoxy-3-nitrophenyl)-3-((3-(nitrooxy)propoxy)methyl)pyrazol-5-yl)-4-(methylsulfonyl)benzene], in assay [1], the inhibition at 100 µM amounted to 85%. Besides, in assay [2], the inhibition at 1 µM is 70% and the inhibition at 10 µM is 100%.

Turning to `CS(=O)(=O)c1ccc(-c2cc(/C=C\CCO)nn2-c2ccccc2)cc1` [Example 11d], the “COX-1 Inhibition (% at 100 μM)” value in assay [1] (setting [3]) came to 25%. Also, the “COX-2 Inhibition (% at 1 μM)” value in assay [2] (setting [4]) is recorded as 0%. Also, the “COX-2 Inhibition (% at 10 μM)” value in assay [2] (setting [5]) stood at 30%.

`CS(=O)(=O)c1ccc(-c2cc(/C=C\CCO[N+](=O)[O-])nn2-c2ccccc2)cc1` [Example 11e, 1-(3-((1Z)-4-(Nitrooxy)but-1-enyl)-1-phenylpyrazol-5-yl)-4-(methylsulfonyl)benzene]: in assay [1] (setting [3]), the inhibition at 100 µM turned out to be 90%. The inhibition at 1 µM in assay [2] (setting [4]) stood at 95%. Besides, the inhibition at 10 µM in assay [2] (setting [5]) was determined as 100%.

Consider `CS(=O)(=O)c1ccc(-c2cc(/C=C/CCO[N+](=O)[O-])nn2-c2ccccc2)cc1` [Example 11f, 1-(3-((1E)-4-(Nitrooxy)but-1-enyl)-1-phenylpyrazol-5-yl)-4-(methylsulfonyl)benzene], for which, in assay [1] (setting [3]), the inhibition at 100 µM stood at 85%. Moreover, the inhibition at 1 µM in assay [2] (setting [4]) came out at 55%. In addition, in assay [2] (setting [5]), the inhibition at 10 µM was 90%.
